Measurements as given in patent publication US4415566A, “Cephalosporin derivatives” (Boehringer Ingelheim GmbH, priority 1979, dated 1983).
In brackets after ≈: the same amount, converted by molar mass. Read-outs that look alike come from different tables or passages of the source.

Legend:
Proteus rettgeri = assay: Serial dilution test in the microtiter system (MIC), Prot. rettgeri; type: cell-based; details: Providencia rettgeri; Table IV; Prot. rettg.; 37° C., 18-20 hours; read-out: MIC
Procedure: (§1) These tests were performed according to the method of the serial dilution test in the microtiter system. The effect of the substances on bacteriostasis was examined in a fluid medium. […] A nutrient medium of the following composition was used. 10 gm of peptone, 8 gm of meat extract-oxoid, 3 gm of sodium chloride, 2 gm of sec. sodium phosphate were diluted with distilled water to […] (pH 7.2-7.4). Only in the test against streptococci 1% of glucose was added. The age of the primary cultures was about 20 hours. The standardization of the pathogen suspension was effected by using a photometer according to "Eppendorf" (test tube dismeter 14 mm, filter 546 nm) with the aid of the turbidity of a comparison suspension consisting of barium sulfate, this suspension being prepared by addition of 3.0 ml of 1% barium chloride solution to 97 ml of 1% sulfuric acid. After the standardization, streptococcus aronson were further diluted to a concentration of 1:15 and the other microorganisms to a concentration of 1:1500 by means of a sodium chloride solution.
(§2) 16 mg of the test substance were put into a 10 ml-measuring flask and filled up to the mark with the solvent. The further dilution series was standardized with distilled water or the respective solvent.
(§3) The cavities of the microtiter plates were filled with 0.2 ml of nutrient medium. Then, 0.01 ml of the corresponding test substance dilution was added and inoculated with 0.01 ml of the standardized suspension. The bacteria were incubated at 37° C. for 18-20 hours. Control tests merely using the solvent were carried out simultaneously.
(§4) The measurement was carried out macroscopically to determine the minimal inhibitory (threshold) concentration, i.e. the lower still bacteriostatically effective concentration.
(§5) Staphylococcus aureus SG 511, Escherichia coli ATCC 11 775, Pseudomonas aeruginosa Hamburgensis and Pseudomonas aeruginosa Walter, Serratia marcescens ATCC 13880, Klebsiella pneumoniae ATCC 10 031 and 272, Proteus mirabilis Hamburgensis, Proteus rettgeri, Enterbacter cloaceae ATCC 13 047 and E. Coli R+TEM (β-lactamase carrier).

[1] = test system: Klebsiella pneumoniae ATCC 10 031; assay: Serial dilution test in the microtiter system (MIC), Klebs. pneum. ATCC 10031; type: cell-based
Procedure: as §1, §2, §3, §4, §5

[2] = test system: Serratia marcescens ATCC 13880; assay: Serial dilution test in the microtiter system (MIC), Serrat. marcesc. ATCC 13880; type: cell-based; details: ATCC13880, Table IV, Serr. marcesc. ATCC 13880, 37° C., 18-20 hours, read-out: MIC
Procedure: as §1, §2, §3, §4, §5

[3] = test system: Enterbacter cloaceae ATCC 13 047; assay: Serial dilution test in the microtiter system (MIC), Eb. cloaceae ATCC 13047; type: cell-based; details: Table IV; Eb. cloaceae; 37° C., 18-20 hours; read-out: MIC
Procedure: as §1, §2, §3, §4, §5

[4] = test system: Escherichia coli ATCC 11 775; assay: Serial dilution test in the microtiter system (MIC), E. Coli ATCC 11775; type: cell-based; details: Table IV, E. Coli ATCC 11775, 37° C., 18-20 hours, read-out: MIC
Procedure: as §1, §2, §3, §4, §5

[5] = test system: Pseudomonas aeruginosa Hamburgensis; assay: Serial dilution test in the microtiter system (MIC), Pseud. aerug. Hbg.; type: cell-based
Procedure: as §1, §2, §3, §4, §5

[6] = test system: Proteus mirabilis Hamburgensis; assay: Serial dilution test in the microtiter system (MIC), Prot. mirabilis; type: cell-based; details: Table IV, Prot. mir. Hbg., 37° C., 18-20 hours, read-out: MIC
Procedure: as §1, §2, §3, §4, §5

[7] = test system: Pseudomonas aeruginosa Walter; assay: Serial dilution test in the microtiter system (MIC), Pseud. aerug. Walter; type: cell-based
Procedure: as §1, §2, §3, §4, §5

E. coli ATCC 11775 = assay: In vivo activity in mice, E. coli infection; set-up: species or system Female NMRI mice; details: Escherichia coli, ATCC11775, iPSC, sc, 168 h; E. coli infection i.p.; s.c. administration; per dose; observation 7 days; read-out: ED50 (dose at which 50% of the animals survived)
Procedure: (§6) A number of compounds of this invention were tested in vivo in mice against experimental infections. Bacteria E. coli ATCC 11775 and Psuedomonas aeruginosa Walter were used as pathogens. An intraperitoneal infection with 0.2 ml of a 5% suspension of the bacteria was induced. This corresponds to about 2×10^6 E. Coli germs and 8×10^5 pseudomonas germs/mouse. […] The groups with E. coli infection were treated with the test compound three times on the first day (1, 4, and 7 hours post infectionem) and for two days thereafter twice a day. The groups with the pseudomonas infection were treated with the test compound 6 times on the first day (1, 3, 6, 9, 12 and 15 hours post infectionem) and for two days thereafter twice a day. The observation time was in both cases 7 days. The results of these tests with representatives of the penicillins and cephalosporins according to the invention are shown in the following table: […]

[8] = test system: Staphylococcus aureus SG 511; assay: Serial dilution test in the microtiter system (MIC), S. aureus SG 511; type: cell-based; details: SG511, Table IV, S. aureus SG 511, 37° C., 18-20 hours, read-out: MIC
Procedure: as §1, §2, §3, §4, §5

[9] = test system: Klebsiella pneumoniae 272; assay: Serial dilution test in the microtiter system (MIC), Klebs. pneum. 272; type: cell-based
Procedure: as §1, §2, §3, §4, §5

[10] = test system: Psuedomonas aeruginosa Walter; assay: In vivo activity in mice, Pseudomonas infection; set-up: species or system Female NMRI mice; details: for ED50: Mus musculus, iPSC, sc, 168 h, Pseudomonas infection i.p., s.c. administration, per dose, observation 7 days, read-out: ED50 (dose at which 50% of the animals survived)
Procedure: as §6

[11] = Table IV, Klebs. pneum. ATCC 10031, 37° C., 18-20 hours, read-out: MIC
[12] = Table IV, Klebs. pneum. 272, 37° C., 18-20 hours, read-out: MIC

| Compound | MIC (Proteus rettgeri) | MIC [1, 11] | MIC [2] | MIC [3] | MIC [4] | MIC [5] | MIC [6] | MIC [7] | ED50 (E. coli ATCC 11775) | MIC [8] | MIC [9, 12] | ED50 [10] | MIC [9]; 272 | animals died ([10]; Pseudomonas infection, s.c., at 200 mg/kg) | MIC [1] |
| --- | --- | --- | --- | --- | --- | --- | --- | --- | --- | --- | --- | --- | --- | --- | --- |
| Cn1nnnc1SCC1=C(C(=O)O)N2C(=O)[C@@H](NC(=O)[C@H](NC(=O)Nc3cnc(NCc4ccco4)nc3O)c3ccc(O)cc3)[C@H]2SC1 [J] | 0.5 mg/L (≈ 0.704 µM) | 0.5 mg/L (≈ 0.704 µM) | 0.25 mg/L (≈ 0.352 µM) | 0.5 mg/L (≈ 0.704 µM) | 0.25 mg/L (≈ 0.352 µM) | 8 mg/L (≈ 11.3 µM) | 0.12 mg/L (≈ 0.169 µM) | 4 mg/L (≈ 5.64 µM) | 0.3 mg/kg | 0.5 mg/L (≈ 0.704 µM) | 0.5 mg/L (≈ 0.704 µM) | 6.3 mg/kg | – | – | – |
| Cn1nnnc1SCC1=C(C(=O)O)N2C(=O)[C@@H](NC(=O)[C@H](NC(=O)Nc3cnc(NCc4cccs4)nc3O)c3ccc(O)cc3)[C@H]2SC1 [N] | 0.5 mg/L (≈ 0.689 µM) | 0.25 mg/L (≈ 0.344 µM) | 0.25 mg/L (≈ 0.344 µM) | 0.25 mg/L (≈ 0.344 µM) | 0.25 mg/L (≈ 0.344 µM) | 8 mg/L (≈ 11 µM) | 0.12 mg/L (≈ 0.165 µM) | 4 mg/L (≈ 5.51 µM) | 0.6 mg/kg | 0.5 mg/L (≈ 0.689 µM) | 0.25 mg/L (≈ 0.344 µM) | – | – | – | – |
| CO/N=C(\C(=O)N[C@@H]1C(=O)N2C(C(=O)O)=C(COC(N)=O)CS[C@H]12)c1ccco1 [Cefuroxim, reference compound] | 2 mg/L (≈ 4.71 µM) | 2 mg/L (≈ 4.71 µM) | 8 mg/L (≈ 18.9 µM) | 32 mg/L (≈ 75.4 µM) | 8 mg/L (≈ 18.9 µM) | – | 0.5 mg/L (≈ 1.18 µM) | – | 37 mg/kg | 1 mg/L (≈ 2.36 µM) | – | > 200 mg/kg | 4 mg/L (≈ 9.43 µM) | all animals died | – |
| Cn1nnnc1SCC1=C(C(=O)O)N2C(=O)[C@@H](NC(=O)[C@H](NC(=O)Nc3cnc(Nc4ccc([S+](C)[O-])nc4)nc3O)c3ccc(O)cc3)[C@H]2SC1 (stereo partly shown) [O] | 0.5 mg/L (≈ 0.65 µM) | 0.25 mg/L (≈ 0.325 µM) | 0.5 mg/L (≈ 0.65 µM) | 0.5 mg/L (≈ 0.65 µM) | 0.25 mg/L (≈ 0.325 µM) | 4 mg/L (≈ 5.2 µM) | 0.12 mg/L (≈ 0.156 µM) | 4 mg/L (≈ 5.2 µM) | – | 0.25 mg/L (≈ 0.325 µM) | 0.25 mg/L (≈ 0.325 µM) | – | – | – | – |
| Cn1nnnc1SCC1=C(C(=O)O)N2C(=O)[C@@H](NC(=O)[C@H](NC(=O)Nc3cnc(NCc4cccnc4)nc3O)c3ccc(O)cc3)[C@H]2SC1 [L] | 0.5 mg/L (≈ 0.694 µM) | – | 0.25 mg/L (≈ 0.347 µM) | 0.25 mg/L (≈ 0.347 µM) | – | – | – | – | 0.2 mg/kg | 0.5 mg/L (≈ 0.694 µM) | 0.25 mg/L (≈ 0.347 µM) | 4.6 mg/kg | – | – | 0.25 mg/L (≈ 0.347 µM) |
